# Test results published in patent US9040663B2, “Melanocortin receptor-specific peptides” (AstraZeneca AB, priority 2009, dated 2015).
# Where “and” joins values, the source holds several entries; their conditions need not be identical. Identical values can stand only once. Like-named read-outs stand apart in the source and are kept apart here.
# Tests used:
# hMC4-R [1] = target: T1, hMC4-R (Homo sapiens (Human), UniProt P32245); assay: High and low density hMC4-R functional assay (cAMP, HEK293-T-REx-MC4-R cells); format: cell-based; conditions: for Emax: NDP-α-MSH = 100%
# [2] = Food intake and body weight change; format: in vivo, Sprague-Dawley rats; conditions: male rats, 1.0 mg/kg s.c., mean ± SEM; for BW change 0-24 h: body weight; for FI 0-4 h / FI 0-24 h: food intake
# Experimental: 7.4 Food Intake and Body Weight Change.
# Change in food intake and body weight was evaluated for selected peptides administered by subcutaneous injection route. Male Sprague-Dawley rats were obtained from Hilltop Lab Animals, Inc. (Scottdale, Pa.). Animals were individually housed in conventional polystyrene hanging cages and maintained on a controlled 12 hour on/off light cycle. Water and pelleted food (ProLab RMH 2500, W.F. Fisher & Son Inc.) was provided ad libitum. The rats were dosed subcutaneously with vehicle (3.2% mannitol/50 mM Tris buffer) or selected peptides (1.0 mg/kg). The changes in food intake for the 4 and 24 hour periods after dosing and the changes in body weight for the 24 hour period after dosing were determined. The changes in body weight and food intake for the 48 hour and 72 hour periods after dosing was also measured to determine reversal of changes in body weight and food intake effects back to baseline levels (not shown).
# [3] = Induction of penile erection; conditions: male rats; for Total number of PE/rat 0-1 h: mean ± SEM; for % Responders: rats showing at least one erection
# Experimental: 7.5 Induction of Penile Erection.
# (§1) The ability of peptides of the present invention to induce penile erection (PE) in male rats was evaluated with selected peptides. Male Sprague-Dawley rats weighing 250-300 g were kept on a 12 hour on/off light cycle with food and water ad libitum. All behavioral studies were performed between 9 a.m. and 4 p.m.
# (§2) Corresponding vehicle controls (3.2% mannitol/50 mM Tris buffer) were run in parallel.
# hMC4-R [4] = target: T1, hMC4-R; assay: Competitive inhibition binding assay using [I125]-NDP-α-MSH, hMC4-R; conditions: membranes of HEK-293 cells expressing recombinant hMC4-R, read-out: MC4-R Ki
# MC1-R = assay: Competitive inhibition binding assay using [I125]-NDP-α-MSH, MC1-R; conditions: membranes of B-16 mouse melanoma cells (endogenous MC1-R), in some instances HEK-293 hMC1-R
# How it was run: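 Radioligand displacement on membranes from B-16 mouse melanoma cells (endogenous MC1-R) or HEK-293 expressing recombinant hMC1-R, with 0.1 nM [I125]-NDP-α-MSH and increasing peptide concentrations in HEPES pH 7.5 buffer, 60 min at 37° C.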
# [5] = in vivo, sc
# Experimental: 7.5 Induction of Penile Erection.
# as §1, §2
# [6] = 0.1 ng/mL Doxycycline (low density hMC4-R system)
# [7] = 0.1 ng/mL Doxycycline (low density hMC4-R system), read-out: Intrinsic Activity (%)
# [8] = 10 ng/mL Doxycycline (high density hMC4-R system), read-out: Intrinsic Activity (%)
# [9] = 10 ng/mL Doxycycline (high density hMC4-R system)
# T1 sequence (P32245 whole entry): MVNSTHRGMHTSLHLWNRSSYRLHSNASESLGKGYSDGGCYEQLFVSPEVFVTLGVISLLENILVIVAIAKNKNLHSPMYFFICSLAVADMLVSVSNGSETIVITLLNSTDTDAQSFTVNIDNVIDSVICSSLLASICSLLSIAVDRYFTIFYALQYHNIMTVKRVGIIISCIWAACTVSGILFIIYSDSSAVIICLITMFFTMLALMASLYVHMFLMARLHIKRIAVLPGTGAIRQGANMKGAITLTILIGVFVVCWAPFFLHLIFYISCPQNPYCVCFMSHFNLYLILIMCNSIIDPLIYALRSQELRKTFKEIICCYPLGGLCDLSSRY
SMILES,EC50 (hMC4-R [1]; [6]) [nM],Emax (hMC4-R [1]; [7]) [%],Emax (hMC4-R [1]; [8]) [%],Total number of PE/rat 0-1 h ([3]; 1.0 mg/kg s.c.),% Responders ([3]; 1.0 mg/kg s.c.) [%],Total number of PE/rat 0-1 h ([3]; 3.0 mg/kg s.c.),% Responders ([3]; 3.0 mg/kg s.c.) [%],Ki (hMC4-R [4]) [nM],Ki (MC1-R) [nM],Total number of PE/rat 0-1 h ([5]; 1 mg/kg),Total number of PE/rat 0-1 h ([5]; 3 mg/kg),EC50 (hMC4-R [1]; [9]) [nM],"Emax (hMC4-R [1]; Table 1, mean values, 0.1 ng/mL Doxycycline (low density hMC4-R system), read-out: Intrinsic activity (%)) [%]",BW change 0-24 h [2] [g],FI 0-4 h [2],FI 0-24 h [2]
"CC(=O)N[C@@H](CCCNC(=N)N)C(=O)N[C@H]1CCCNC(=O)CC[C@@H](C(N)=O)NC(=O)[C@H](Cc2c[nH]c3ccccc23)NC(=O)[C@H](CCCNC(=N)N)NC(=O)[C@@H](Cc2ccccc2F)NC(=O)[C@H](CC(N)=O)NC1=O [Example 71, Ac-Arg-cyclo(Orn-Asn-D-Phe(2-F)-Arg-Trp-Glu)-NH2]",1,86,91,–,–,–,–,9,335,–,–,0.085,–,–,–,–
"CC(=O)N[C@@H](CCCNC(=N)N)C(=O)N[C@H]1CCC(=O)NCCC[C@@H](C(N)=O)NC(=O)[C@H](Cc2c[nH]c3ccccc23)NC(=O)[C@H](CCCNC(=N)N)NC(=O)[C@@H](Cc2cc(F)cc(F)c2)NC(=O)[C@H](CC(N)=O)NC1=O [Example 76, Ac-Arg-cyclo(Glu-Asn-D-Phe(3,4-diF)-Arg-Trp-Orn)-NH2]",3,53,85,–,–,–,–,20,260,–,–,0.135,–,–,–,–
"CC(=O)N[C@H](CCCNC(=N)N)C(=O)N[C@H]1CC(=O)NCCCC[C@@H](C(N)=O)NC(=O)[C@H](Cc2c[nH]c3ccccc23)NC(=O)[C@H](CCCNC(=N)N)NC(=O)[C@@H](Cc2ccccc2Cl)NC(=O)[C@H](CCC(N)=O)NC1=O [Example 79, Ac-D-Arg-cyclo(Asp-Gln-D-Phe(2-Cl)-Arg-Trp-Lys)-NH2]",4,48,85,–,–,–,–,10,395,–,–,0.2,–,–,–,–
"CC(=O)N[C@@H](CCCNC(=N)N)C(=O)N[C@H]1CCC(=O)NCCC[C@@H](C(N)=O)NC(=O)[C@H](Cc2c[nH]c3ccccc23)NC(=O)[C@H](CCCNC(=N)N)NC(=O)[C@@H](Cc2ccccc2F)NC(=O)[C@H](CC(N)=O)NC1=O [Example 84, Ac-Arg-cyclo(Glu-Asn-D-Phe(2-Cl)-Arg-Trp-Orn)-NH2]",–,78,97,–,–,–,–,7,245,–,–,0.09,–,–,–,–
"CC(=O)N[C@@H](CCCNC(=N)N)C(=O)N[C@H]1CCC(=O)NCCC[C@@H](C(N)=O)NC(=O)[C@H](Cc2c[nH]c3ccccc23)NC(=O)[C@H](CCCNC(=N)N)NC(=O)[C@@H](Cc2ccccc2C(F)(F)F)NC(=O)[C@H](CCC(N)=O)NC1=O [Example 114, Ac-Arg-cyclo(Glu-Gln-D-Phe(2-CF3)-Arg-Trp-Orn)-NH2]",1,73,117,–,–,–,–,8,93,–,–,–,–,–,–,–
"CC(=O)N[C@@H](CCCNC(=N)N)C(=O)N[C@H]1CCC(=O)NCCC[C@@H](C(=O)O)NC(=O)[C@H](Cc2c[nH]c3ccccc23)NC(=O)[C@H](CCCNC(=N)N)NC(=O)[C@@H](Cc2ccccc2)NC(=O)[C@H](CCN)NC1=O [Ref Ex 2, Ac-Arg-cyclo(Glu-Dab-D-Phe-Arg-Trp-Orn)-OH, reference compound]",–,–,–,–,–,6.0 ± 0.44,100,–,–,–,–,–,92,–,3.17 ± 0.42 g and 4.41 ± 0.48 g and 2.80 ± 0.27 g,19.98 ± 0.60 g and 20.84 ± 1.01 g and 21.81 ± 1.04 g

# Continued by falling Ki (hMC4-R [4]), values first:
EC50 (hMC4-R [1]; [6]) [nM],Emax (hMC4-R [1]; [7]) [%],Emax (hMC4-R [1]; [8]) [%],Total number of PE/rat 0-1 h ([3]; 1.0 mg/kg s.c.),% Responders ([3]; 1.0 mg/kg s.c.) [%],Total number of PE/rat 0-1 h ([3]; 3.0 mg/kg s.c.),% Responders ([3]; 3.0 mg/kg s.c.) [%],Ki (hMC4-R [4]) [nM],Ki (MC1-R) [nM],Total number of PE/rat 0-1 h ([5]; 1 mg/kg),Total number of PE/rat 0-1 h ([5]; 3 mg/kg),EC50 (hMC4-R [1]; [9]) [nM],"Emax (hMC4-R [1]; Table 1, mean values, 0.1 ng/mL Doxycycline (low density hMC4-R system), read-out: Intrinsic activity (%)) [%]",SMILES,BW change 0-24 h [2] [g],FI 0-4 h [2],FI 0-24 h [2]
6,13,86,–,–,–,–,7,1750,–,–,0.65,–,"CC(=O)N[C@H](CCCNC(=N)N)C(=O)N[C@H]1CC(=O)NCCCC[C@@H](C(N)=O)NC(=O)[C@H](Cc2c[nH]c3ccccc23)NC(=O)[C@H](CCCNC(=N)N)NC(=O)[C@@H](Cc2cccc(Cl)c2)NC(=O)[C@H](CCC(N)=O)NC1=O [Example 80, Ac-D-Arg-cyclo(Asp-Gln-D-Phe(3-Cl)-Arg-Trp-Lys)-NH2]",–,–,–
1,43,100,1.7 ± 0.36,29,6.0 ± 0.76,100,5,870,–,–,–,–,"CC(=O)N[C@@H](CCCNC(=N)N)C(=O)N[C@H]1CCC(=O)NCCC[C@@H](C(N)=O)NC(=O)[C@H](Cc2c[nH]c3ccccc23)NC(=O)[C@H](CCCNC(=N)N)NC(=O)[C@@H](Cc2ccc(C#N)cc2)NC(=O)[C@H](CC(N)=O)NC1=O [Example 43, Ac-Arg-cyclo(Glu-Asn-D-Phe(4-CN)-Arg-Trp-Orn)-NH2]",0.45 ± 0.35,6.85 ± 0.55 g,24.44 ± 0.85 g
1,38,99,2.3 ± 0.42,86,3.3 ± 1.0,100,5,130,–,–,0.14,–,"CC(=O)N[C@@H](CCCNC(=N)N)C(=O)N[C@H]1CCC(=O)NCCC[C@@H](C(N)=O)NC(=O)[C@H](Cc2c[nH]c3ccccc23)NC(=O)[C@H](CCCNC(=N)N)NC(=O)[C@@H](Cc2ccc(F)cc2)NC(=O)[C@@H]2CCCN2C1=O [Example 67, Ac-Arg-cyclo(Glu-Pro-D-Phe(4-F)-Arg-Trp-Orn)-NH2]",-0.05 ± 0.39,4.20 ± 0.66 g,21.51 ± 1.27 g
–,68,100,–,–,–,–,5,405,–,–,–,–,"CC(=O)N[C@@H](CCCNC(=N)N)C(=O)N[C@H]1CCCNC(=O)CC[C@@H](C(N)=O)NC(=O)[C@H](Cc2c[nH]c3ccccc23)NC(=O)[C@H](CCCNC(=N)N)NC(=O)[C@@H](Cc2ccccc2C)NC(=O)[C@H](CC(N)=O)NC1=O [Example 74, Ac-Arg-cyclo(Orn-Asn-D-Phe(2-Me)-Arg-Trp-Glu)-NH2]",–,–,–
0.6,84,105,–,–,–,–,5,105,–,–,0.06,–,"CC(=O)N[C@@H](CCCNC(=N)N)C(=O)N[C@H]1CCC(=O)NCCC[C@@H](C(N)=O)NC(=O)[C@H](Cc2c[nH]c3ccccc23)NC(=O)[C@H](CCCNC(=N)N)NC(=O)[C@@H](Cc2ccccc2C)NC(=O)[C@H](CCC(N)=O)NC1=O [Example 110, Ac-Arg-cyclo(Glu-Gln-D-Phe(2-Me)-Arg-Trp-Orn)-NH2]",–,–,–
–,40,97,–,100,–,86,4,–,4.9 ± 1.1,4.4 ± 1.1,–,–,"CC(=O)N[C@@H](CCCNC(=N)N)C(=O)N[C@H]1CCC(=O)NCCC[C@@H](C(N)=O)NC(=O)[C@H](Cc2c[nH]c3ccccc23)NC(=O)[C@H](CCCNC(=N)N)NC(=O)[C@@H](Cc2ccc(C#N)cc2)NC(=O)[C@H](CCC(N)=O)NC1=O [Example 46, Ac-Arg-cyclo(Glu-Gln-D-Phe(4-CN)-Arg-Trp-Orn)-NH2]",-0.29 ± 0.55,3.71 ± 0.68 g,20.56 ± 1.14 g
0.8,54,108,–,–,–,–,4,235,–,–,0.17,–,"CC(=O)N[C@@H](CCCNC(=N)N)C(=O)N[C@H]1CCCNC(=O)CC[C@@H](C(N)=O)NC(=O)[C@H](Cc2c[nH]c3ccccc23)NC(=O)[C@H](CCCNC(=N)N)NC(=O)[C@@H](Cc2ccccc2C(F)(F)F)NC(=O)[C@H](CCC(N)=O)NC1=O [Example 115, Ac-Arg-cyclo(Orn-Gln-D-Phe(2-CF3)-Arg-Trp-Glu)-NH2]",–,–,–
0.25,76,92,–,–,–,–,3,150,–,–,0.095,–,"CC(=O)N[C@@H](CCCNC(=N)N)C(=O)N[C@H]1CCC(=O)NCCC[C@@H](C(N)=O)NC(=O)[C@H](Cc2c[nH]c3ccccc23)NC(=O)[C@H](CCCNC(=N)N)NC(=O)[C@@H](Cc2ccc(F)cc2)NC(=O)[C@H](CC(N)=O)NC1=O [Example 69, Ac-Arg-cyclo(Glu-Asn-D-Phe(4-F)-Arg-Trp-Orn)-NH2]",–,–,–
0.65,43,87,–,–,–,–,3,190,–,–,0.125,–,"CC(=O)N[C@@H](CCCNC(=N)N)C(=O)N[C@H]1CCCNC(=O)CC[C@@H](C(N)=O)NC(=O)[C@H](Cc2c[nH]c3ccccc23)NC(=O)[C@H](CCCNC(=N)N)NC(=O)[C@@H](Cc2ccc(F)c(F)c2)NC(=O)[C@H](CC(N)=O)NC1=O [Example 75, Ac-Arg-cyclo(Orn-Asn-D-Phe(3,4-diF)-Arg-Trp-Glu)-NH2]",–,–,–
